Here are results for 31 compounds from US9200001B2, “Triazolyl PDE10 inhibitors” (Merck Sharp & Dohme Corp., priority 2011, dated 2015).

Usually Ki stands for a dissociation constant, usually derived from enzyme kinetics or from competition with a known ligand.

human PDE10A2, sequence (Q9Y233 267-1055): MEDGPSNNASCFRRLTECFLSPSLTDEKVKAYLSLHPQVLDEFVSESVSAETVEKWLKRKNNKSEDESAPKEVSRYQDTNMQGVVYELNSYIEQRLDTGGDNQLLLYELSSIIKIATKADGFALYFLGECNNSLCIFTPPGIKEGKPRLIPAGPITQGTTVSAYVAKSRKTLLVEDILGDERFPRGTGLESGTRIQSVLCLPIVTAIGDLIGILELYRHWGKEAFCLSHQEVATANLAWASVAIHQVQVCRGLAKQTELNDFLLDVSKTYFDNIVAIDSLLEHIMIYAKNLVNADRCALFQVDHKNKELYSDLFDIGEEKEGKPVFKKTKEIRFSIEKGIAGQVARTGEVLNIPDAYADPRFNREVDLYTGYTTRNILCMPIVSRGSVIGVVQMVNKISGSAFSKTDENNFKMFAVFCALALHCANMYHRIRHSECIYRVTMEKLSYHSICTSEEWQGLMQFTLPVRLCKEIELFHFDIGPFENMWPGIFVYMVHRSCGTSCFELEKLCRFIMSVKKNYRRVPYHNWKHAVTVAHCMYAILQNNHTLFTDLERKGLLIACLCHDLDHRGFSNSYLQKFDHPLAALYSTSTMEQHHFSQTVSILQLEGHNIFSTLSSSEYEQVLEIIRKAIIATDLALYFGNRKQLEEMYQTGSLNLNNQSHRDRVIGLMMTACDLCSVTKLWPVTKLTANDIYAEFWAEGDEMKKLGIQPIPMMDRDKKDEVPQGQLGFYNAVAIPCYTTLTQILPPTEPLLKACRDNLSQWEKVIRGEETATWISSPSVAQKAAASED

This assay concerns the target human PDE10A2 (Homo sapiens (Human), UniProt Q9Y233). Nature of the assay: PDE10 fluorescence polarization (IMAP FP) inhibition assay. Format: biochemical. The note with it: FAM-labeled cAMP 50 nM, room temperature, read-out: PDE10a Ki. The procedure, abridged: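 Cytoplasmic lysate of AD293 cells transiently expressing human PDE10A2, incubated 30 minutes at room temperature with 50 nM FAM-labeled cAMP in Tris pH 7.2 with MgCl2. Read by IMAP fluorescence polarization; 0% inhibition set by 1% DMSO, 100% by a reference PDE10 inhibitor.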
As for `Cc1nc(C2CC2c2nc3ccccc3n2Cc2ccccc2)cc(-n2nc(C)nc2C)n1` (stereo not shown) [Cpd 52, 1-benzyl-2-(2-(6-(3,5-dimethyl-1H-1,2,4-triazol-1-yl)-2-methylpyrimidin-4-yl)cyclopropyl)-1H-benzo[d]imidazole], the inhibitory constant (Ki) is 13.4 nM.

As for `Cc1nc(C2CC2c2nc3cc(F)c(F)cc3[nH]2)cc(-n2nc(C)nc2C)n1` (stereo not shown) [Cpd 54, 2-(2-(6-(3,5-dimethyl-1H-1,2,4-triazol-1-yl)-2-methylpyrimidin-4-yl)cyclopropyl)-5,6-difluoro-1H-benzo[d]imidazole], the inhibitory constant (Ki) amounted to 25.1 nM.

`Cc1nc(C2CC2c2nc3cccc(C)c3[nH]2)cc(-n2nc(C)nc2C)n1` (stereo not shown) [Cpd 55, 2-(2-(6-(3,5-dimethyl-1H-1,2,4-triazol-1-yl)-2-methylpyrimidin-4-yl)cyclopropyl)-7-methyl-1H-benzo[d]imidazole]: the inhibitory constant (Ki) is 16.8 nM.

On to `Cc1nc(C2CC2c2nc3ccccc3n2C)cc(-n2nc(C)nc2C(C)C)n1` (stereo not shown) [Cpd 56, 2-(2-(6-(5-isopropyl-3-methyl-1H-1,2,4-triazol-1-yl)-2-methylpyrimidin-4-yl)cyclopropyl)-1-methyl-1H-benzo[d]imidazole], for which the Ki was found to be 1.7 nM.

Take `Cc1nc(C2CC2c2nc3ccc(Cl)cc3[nH]2)cc(-n2nc(C)nc2C)n1` (stereo not shown) [Cpd 57, 6-chloro-2-(2-(6-(3,5-dimethyl-1H-1,2,4-triazol-1-yl)-2-methylpyrimidin-4-yl)cyclopropyl)-1H-benzo[d]imidazole]: the inhibition constant (Ki) turned out to be 30.7 nM.

Consider `Cc1ccc2nc(C3CC3c3cc(-n4nc(C)nc4C)nc(C)n3)[nH]c2c1` (stereo not shown) [Cpd 58, 2-(2-(6-(3,5-dimethyl-1H-1,2,4-triazol-1-yl)-2-methylpyrimidin-4-yl)cyclopropyl)-6-methyl-1H-benzo[d]imidazole], for which the Ki is 34.9 nM.

For the compound `COc1ccc2nc(C3CC3c3cc(-n4nc(C)nc4C)nc(C)n3)[nH]c2c1` (stereo not shown) [Cpd 59, 2-(2-(6-(3,5-dimethyl-1H-1,2,4-triazol-1-yl)-2-methylpyrimidin-4-yl)cyclopropyl)-6-methoxy-1H-benzo[d]imidazole], the inhibitory constant (Ki) is 30.5 nM.

Take `Cc1nc(C2CC2c2nc3ccc(OC(F)F)cc3[nH]2)cc(-n2nc(C)nc2C)n1` (stereo not shown) [Cpd 60, 6-(difluoromethoxy)-2-(2-(6-(3,5-dimethyl-1H-1,2,4-triazol-1-yl)-2-methylpyrimidin-4-yl)cyclopropyl)-1H-benzo[d]imidazole]: the Ki turned out to be 58.2 nM.

As for `Cc1nc(C)n(-c2cc([C@@H]3C[C@H]3c3nc4ccccc4n3C)nc(C#N)n2)n1` [Cpd 61, 4-(3,5-dimethyl-1H-1,2,4-triazol-1-yl)-6-[(1R,2R)-2-(1-methyl-1H-benzimidazol-2-yl)cyclopropyl]primidine-2-carbonitrile], the Ki is 0.085 nM.

With `CNc1nc([C@@H]2C[C@H]2c2nc3ccccc3n2C)cc(-n2nc(C)nc2C)n1` [Cpd 62, 4-(3,5-dimethyl-1H-1,2,4-triazol-1-yl)-N-methyl-6-[(1R,2R)-2-(1-methyl-1H-benzimidazol-2-yl)cyclopropyl]pyrimidin-2-amine], the Ki came out at 0.77 nM.

`CCOc1nc([C@@H]2C[C@H]2c2nc3ccccc3n2C)cc(-n2nc(C)nc2C)n1` [Cpd 63, 2-{(1R,2R)-2-[6-(3,5-dimethyl-1H-1,2,4-triazol-1-yl)-2-ethoxypyrimidin-4-yl]cyclopropyl}-1-methyl-1H-benzimidazole]: the Ki is 0.54 nM.

Turning to `Cc1nc(C)n(-c2cc([C@@H]3C[C@H]3c3nc4ccccc4n3C)nc(OCCO)n2)n1` [Cpd 64, 2-({4-(3,5-dimethyl-1H-1,2,4-triazol-1-yl)-6-[(1R,2R)-2-(1-methyl-1H-benzimidazol-2-yl)cyclopropyl]pyrimidin-2-yl}oxy)ethanol], the Ki amounted to 1.09 nM.

As for `COCCOc1nc([C@@H]2C[C@H]2c2nc3ccccc3n2C)cc(-n2nc(C)nc2C)n1` [Cpd 65, 2-{(1R,2R)-2-[6-(3,5-dimethyl-1H-1,2,4-triazol-1-yl)-2-(2-methoxyethoxy)pyrimidin-4-yl]cyclopropyl}-1-methyl-1H-benzimidazole], the Ki turned out to be 1.08 nM.

On to `COC[C@@H](C)Oc1nc([C@@H]2C[C@H]2c2nc3ccccc3n2C)cc(-n2nc(C)nc2C)n1` [Cpd 66, 2-[(1R,2R)-2-{6-(3,5-dimethyl-1H-1,2,4-triazol-1-yl)-2-[(1R)-2-methoxy-1-methylethoxy]pyrimidin-4-yl}cyclopropyl]-1-methyl-1H-benzimidazole], for which the Ki was 0.63 nM.

Turning to `COC[C@H](C)Oc1nc([C@@H]2C[C@H]2c2nc3ccccc3n2C)cc(-n2nc(C)nc2C)n1` [Cpd 67, 2-[(1R,2R)-2-{6-(3,5-dimethyl-1H-1,2,4-triazol-1-yl)-2-[(1S)-2-methoxy-1-methylethoxy]pyrimidin-4-yl]cyclopropyl}-1-methyl-1H-benzimidazole], the Ki was found to be 0.9 nM.

Take `Cc1nc([C@@H]2C[C@H]2c2nc3ccc(F)cc3[nH]2)cc(-n2nc(C)nc2C)n1` [Cpd 68, 2-{(1R,2R)-2-[6-(3,5-dimethyl-1H-1,2,4-triazol-1-yl)-2-methylpyrimidin-4-yl]cyclopropyl}-6-fluoro-1H-benzimidazole]: the Ki was determined as 9.2 nM.

With `CSc1nc([C@@H]2C[C@H]2c2nc3ccccc3n2C)cc(-n2nc(C)nc2C)n1` [Cpd 69, 2-{(1R,2R)-2-[6-(3,5-dimethyl-1H-1,2,4-triazol-1-yl)-2-(methylsulfanyl)pyrimidin-4-yl]cyclopropyl}-1-methyl-1H-benzimidazole], the Ki is 0.37 nM.

Regarding `Cc1nc([C@@H]2C[C@H]2c2nc3ccccc3n2C)cc(-n2cnc(C)n2)n1` [Cpd 77, 1-methyl-2-{(1R,2R)-2-[2-methyl-6-(3-methyl-1H-1,2,4-triazol-1-yl)pyrimidin-4-yl]cyclopropyl}-1H-benzimidazole], the Ki amounted to 9 nM.

For the compound `Cc1nc([C@@H]2C[C@H]2c2nc3ccccc3n2C)cc(-n2nc(Br)nc2C)n1` [Cpd 88, 2-{(1R,2R)-2-[6-(3-bromo-5-methyl-1H-1,2,4-triazol-1-yl)-2-methylpyrimidin-4-yl]cyclopropyl}-1-methyl-1H-benzimidazole], the inhibition constant (Ki) worked out at 2 nM.

Regarding `Cc1nc([C@@H]2C[C@H]2c2nc3ccccc3[nH]2)cc(-n2nc(C)nc2C)n1` [Cpd 89, 2-{(1R,2R)-2-[6-(3,5-dimethyl-1H-1,2,4-triazol-1-yl)-2-methylpyrimidin-4-yl]cyclopropyl}-1H-benzimidazole], the Ki came out at 2.6 nM.

For `Cc1nc([C@H]2C[C@@H]2c2nc3ccccc3[nH]2)cc(-n2nc(C)nc2C)n1` [Cpd 90, 2-{(1S,2S)-2-[6-(3,5-dimethyl-1H-1,2,4-triazol-1-yl)-2-methylpyrimidin-4-yl]cyclopropyl}-1H-benzimidazole], the inhibitory constant (Ki) stood at 38 nM.

In the case of `CCc1nc(C)nn1-c1cc([C@@H]2C[C@H]2c2nc3ccccc3n2C)nc(C)n1` [Cpd 92, 2-{(1R,2R)-2-[6-(5-ethyl-3-methyl-1H-1,2,4-triazol-1-yl)-2-methylpyrimidin-4-yl]cyclopropyl}-1-methyl-1H-benzimidazole], the inhibitory constant (Ki) was 0.4 nM.

With `Cc1nc([C@@H]2C[C@H]2c2nc3ccccc3n2C)cc(-n2nc(C)nc2CF)n1` [Cpd 93, 2-[(1R,2R)-2-{6-[5-(fluoromethyl)-3-methyl-1H-1,2,4-triazol-1-yl]-2-methylpyrimidin-4-yl}cyclopropyl]-1-methyl-1H-benzimidazole], the Ki worked out at 3.1 nM.

Turning to `COCc1ncnn1-c1cc([C@@H]2C[C@H]2c2nc3ccccc3n2C)nc(C)n1` [Cpd 94, 2-[(1R,2R)-2-{6-[5-(methoxymethyl)-1H-1,2,4-triazol-1-yl]-2-methylpyrimidin-4-yl}cyclopropyl]-1-methyl-1H-benzimidazole], the Ki was 5.3 nM.

For the compound `CO[C@@H](C)c1nc(C)nn1-c1cc([C@@H]2C[C@H]2c2nc3ccccc3n2C)nc(C)n1` [Cpd 95, 2-[(1R,2R)-2-(6-{5-[(1S)-1-methoxyethyl]-3-methyl-1H-1,2,4-triazol-1-yl}-2-methylpyrimidin-4-yl)cyclopropyl]-1-methyl-1H-benzimidazole], the inhibition constant (Ki) was 2.1 nM.

Regarding `Cc1nc([C@@H]2C[C@H]2c2nc3ccccc3n2C)cc(-n2nc(C)nc2C2CCN(C)CC2)n1` [Cpd 96, 1-methyl-2-[(1R,2R)-2-{2-methyl-6-[3-methyl-5-(1-methylpiperidin-4-yl)-1H-1,2,4-triazol-1-yl]pyrimidin-4-yl}cyclopropyl]-1H-benzimidazole], the Ki turned out to be 3.9 nM.

As for `Cc1nc([C@@H]2C[C@H]2c2nc3ccccc3n2C)cc(-n2nc(C)nc2C2CCOCC2)n1` [Cpd 97, 1-methyl-2-[(1R,2R)-2-{2-methyl-6-[3-methyl-5-(tetrahydro-2H-pyran-4-yl)-1H-1,2,4-triazol-1-yl]pyrimidin-4-yl}cyclopropyl]-1H-benzimidazole], the inhibitory constant (Ki) stood at 1.1 nM.

On to `Cc1nc([C@@H]2C[C@H]2c2nc3ccccc3n2C)cc(-n2nc(C)nc2C(C)(C)O)n1` [Cpd 98, 2-(3-methyl-1-{2-methyl-6-[(1R,2R)-2-(1-methyl-1H-benzimidazol-2-yl)cyclopropyl]pyrimidin-4-yl}-1H-1,2,4-triazol-5-yl)propan-2-ol], for which the inhibition constant Ki is 4.2 nM.

As to `Cc1nc(CCc2ccc3ncccc3n2)cc(-n2nc(C)nc2C)n1` [Cpd 99, 2-{2-[6-(3,5-dimethyl-1H-1,2,4-triazol-1-yl)-2-methylpyrimidin-4-yl]ethyl}-1,5-naphthyridine], the Ki was determined as 73 nM.

For `Cc1nc([C@@H]2C[C@H]2c2nc3ccccc3n2C)cc(-n2nc(C)nc2C(C)(C)C)n1` [Cpd 100, 2-{(1R,2R)-2-[6-(5-tert-butyl-3-methyl-1H-1,2,4-triazol-1-yl)-2-methylpyrimidin-4-yl]cyclopropyl}-1-methyl-1H-benzimidazole], the inhibitory constant (Ki) came out at 13.8 nM.

Consider `Cc1nc([C@@H]2C[C@H]2c2nc3ccccc3n2C)cc(-n2nc(C)nc2[C@@H]2CCCO2)n1` [Cpd 101, 1-methyl-2-[(1R,2R)-2-(2-methyl-6-{3-methyl-5-[(2S)-tetrahydrofuran-2-yl]-1H-1,2,4-triazol-1-yl}pyrimidin-4-yl)cyclopropyl]-1H-benzimidazole], for which the inhibition constant (Ki) was 5.8 nM.
